According to patent US10681909B2, “Herbicidal triazoles” (FMC Corporation, priority 2014, dated 2020):

Tests used:
waterhemp [1] = test: Test E preemergence; assay type: in vivo, Amaranthus rudis; conditions: scale 0 to 100
Text: (§1) Seeds of plant species selected from corn (Zea mays), soybean (Glycine max), lambsquarters (Chenopodium album), poinsettia, wild (wild poinsettia, Euphorbia heterophylla), pigweed, palmer (palmer pigweed, Amaranthus palmeri), waterhemp (common waterhemp, Amaranthus rudis), surinam grass (Brachiaria decumbens), crabgrass, large (large crabgrass, Digitaria sanguinalis), crabgrass, Brazilian (Brazilian crabgrass, Digitaria horizontalis), panicum, fall (fall panicum, Panicum dichotomiflorum), foxtail, giant (giant foxtail, Setaria faberii), foxtail, green (green foxtail, Setaria viridis), goosegrass (Eleusine indica), johnsongrass (Sorghum halepense), ragweed (common ragweed, Ambrosia elatior), barnyardgrass (Echinochloa crus-galli), sandbur (southern sandbur, Cenchrus echinatus), arrowleaf sida (Sida rhombifolia), ryegrass, Italian (Italian ryegrass, Lolium multiflorum), dayflower, VA (Virginia dayflower, Commelina virginica), field bindweed (Convolvulus arvensis), cocklebur (common cocklebur, Xanthium strumarium), morningglory (Ipomoea coccinea), nightshade (eastern black nightshade, Solanum ptycanthum), kochia (Kochia scoparia), nutsedge, yellow (yellow nutsedge, Cyperus esculentus), smartweed (ladysthumb smartweed, Polygonum persicaria), velvetleaf (Abutilon theophrasti), horseweed (Conyza canadensis), and beggarticks (hairy beggarticks, Bidens pilosa), were planted into a silt loam soil and treated preemergence with test chemicals formulated in a non-phytotoxic solvent mixture which included a surfactant.
(§2) At the same time, plants from these crop and weed species and also waterhemp_RES1, (ALS & Triazine resistant common waterhemp, Amaranthus rudis), and waterhemp_RES2, (ALS & HPPD resistant common waterhemp, Amaranthus rudis) were planted in pots containing Sunshine Redi-Earth® planting medium comprising spaghnum peat moss, vermiculite, starter nutrients and dolomitic limestone were treated with postemergence applications of test chemicals formulated in the same manner. Plants ranged in height from 2 to 18 cm for postemergence treatments (1- to 4-leaf stage). Treated plants and controls were maintained in a greenhouse for 14 to 21 d, after which time all species were compared to controls and visually evaluated. Plant response ratings, summarized in Table E, are based on a scale of 0 to 100 where 0 is no effect and 100 is complete control. A dash (-) response means no test result.

field bindweed [2] = test: Test E preemergence; assay type: in vivo, Convolvulus arvensis; conditions: scale 0 to 100
Text: as §1, §2

poinsettia, wild [3] = test: Test E preemergence; assay type: in vivo, Euphorbia heterophylla; conditions: scale 0 to 100
Text: as §1, §2

poinsettia, wild [4] = test: Test E postemergence; assay type: in vivo, Euphorbia heterophylla; conditions: scale 0 to 100
Text: as §1, §2

smartweed [5] = test: Test E preemergence; assay type: in vivo, Polygonum persicaria; conditions: scale 0 to 100
Text: as §1, §2

field bindweed [6] = test: Test E postemergence; assay type: in vivo, Convolvulus arvensis; conditions: scale 0 to 100
Text: as §1, §2

crabgrass, Brazilian = test: Test E postemergence; assay type: in vivo, Digitaria horizontalis; conditions: Brazil, scale 0 to 100
Text: as §1, §2

smartweed [7] = test: Test E postemergence; assay type: in vivo, Polygonum persicaria; conditions: scale 0 to 100
Protocol: […]
as §2, with “Plants ranged in height from 2 to 18 cm for postemergence treatments (1- to 4-leaf stage).” left out, “Plant response ratings, summarized in Table E, are based on a scale of 0 to 100 where 0 is no effect and 100 is complete control. A dash (-) response means no test result.” left out

cocklebur = test: Test E preemergence; assay type: in vivo, Xanthium strumarium; conditions: scale 0 to 100
Text: as §1, §2

[8] = test system: waterhemp_RES1 (ALS & Triazine resistant common waterhemp); test: Test E postemergence; assay type: in vivo, Amaranthus rudis; conditions: scale 0 to 100
Text: as §1, §2

waterhemp [9] = test: Test E postemergence; assay type: in vivo, Amaranthus rudis; conditions: scale 0 to 100
Text: as §1, §2

[10] = test system: waterhemp_RES2 (ALS & HPPD resistant common waterhemp); test: Test E postemergence; assay type: in vivo, Amaranthus rudis; conditions: scale 0 to 100
Text: as §1, §2

Which Plant response rating (waterhemp [1]; 16 g ai/ha) does the source give for `CCc1nc(-c2ccc(C(F)(F)F)cc2)nn1Cc1ccnc(C(F)(F)F)c1` [Compound 1, 4-[[5-ethyl-3-[4-(trifluoromethyl)phenyl]-1H-1,2,4-triazol-1-yl]methyl]-2-(trifluoromethyl)pyridine] here?
Its Plant response rating is 20.

What about the Plant response rating (waterhemp [1]; 31 g ai/ha) of the same compound?
Its Plant response rating is 95.

And the Plant response rating (waterhemp [1]; 62 g ai/ha)?
The Plant response rating was 95.

What about the Plant response rating (waterhemp [1]; 125 g ai/ha) of the same compound?
Its Plant response rating is 100.

What about the Plant response rating (waterhemp [1]; 250 g ai/ha) of the same compound?
The Plant response rating was 100.

And the Plant response rating (field bindweed [2]; 16 g ai/ha)?
The Plant response rating was 0.

What about the Plant response rating (field bindweed [2]; 31 g ai/ha) of the same compound?
Its Plant response rating is 10.

And the Plant response rating (field bindweed [2]; 62 g ai/ha)?
The Plant response rating was 30.

What about the Plant response rating (field bindweed [2]; 125 g ai/ha) of the same compound?
The Plant response rating was 40.

And the Plant response rating (field bindweed [2]; 250 g ai/ha)?
The Plant response rating was 50.

What about the Plant response rating (poinsettia, wild [3]; 16 g ai/ha) of the same compound?
The Plant response rating was 10.

And the Plant response rating (poinsettia, wild [3]; 31 g ai/ha)?
Its Plant response rating is 30.

What about the Plant response rating (poinsettia, wild [3]; 62 g ai/ha) of the same compound?
Its Plant response rating is 40.

And the Plant response rating (poinsettia, wild [3]; 125 g ai/ha)?
The Plant response rating was 40.

And the Plant response rating (poinsettia, wild [3]; 250 g ai/ha)?
Its Plant response rating is 50.

What about the Plant response rating (poinsettia, wild [4]; 16 g ai/ha) of the same compound?
The Plant response rating was 60.

And the Plant response rating (poinsettia, wild [4]; 31 g ai/ha)?
Its Plant response rating is 70.

And the Plant response rating (poinsettia, wild [4]; 62 g ai/ha)?
The Plant response rating was 75.

What about the Plant response rating (poinsettia, wild [4]; 125 g ai/ha) of the same compound?
The Plant response rating was 80.

What about the Plant response rating (poinsettia, wild [4]; 250 g ai/ha) of the same compound?
Its Plant response rating is 90.

What about the Plant response rating (smartweed [5]; 16 g ai/ha) of the same compound?
The Plant response rating was 25.

And the Plant response rating (smartweed [5]; 31 g ai/ha)?
The Plant response rating was 40.

What about the Plant response rating (smartweed [5]; 62 g ai/ha) of the same compound?
Its Plant response rating is 50.

And the Plant response rating (smartweed [5]; 125 g ai/ha)?
The Plant response rating was 60.

And the Plant response rating (smartweed [5]; 250 g ai/ha)?
Its Plant response rating is 80.

And the Plant response rating (field bindweed [6]; 16 g ai/ha)?
Its Plant response rating is 40.

And the Plant response rating (field bindweed [6]; 31 g ai/ha)?
The Plant response rating was 55.

What about the Plant response rating (field bindweed [6]; 62 g ai/ha) of the same compound?
Its Plant response rating is 65.

What about the Plant response rating (field bindweed [6]; 125 g ai/ha) of the same compound?
The Plant response rating was 65.

And the Plant response rating (field bindweed [6]; 250 g ai/ha)?
The Plant response rating was 75.

And the Plant response rating (crabgrass, Brazilian; 16 g ai/ha)?
The Plant response rating was 20.

What about the Plant response rating (crabgrass, Brazilian; 31 g ai/ha) of the same compound?
Its Plant response rating is 20.

And the Plant response rating (crabgrass, Brazilian; 62 g ai/ha)?
Its Plant response rating is 30.

And the Plant response rating (crabgrass, Brazilian; 125 g ai/ha)?
Its Plant response rating is 30.

What about the Plant response rating (crabgrass, Brazilian; 250 g ai/ha) of the same compound?
Its Plant response rating is 40.

And the Plant response rating (smartweed [7]; 125 g ai/ha)?
Its Plant response rating is 30.

And the Plant response rating (smartweed [7]; 250 g ai/ha)?
The Plant response rating was 80.

What about the Plant response rating (cocklebur; 16 g ai/ha) of the same compound?
The Plant response rating was 0.

And the Plant response rating (cocklebur; 31 g ai/ha)?
Its Plant response rating is 0.

And the Plant response rating (cocklebur; 62 g ai/ha)?
The Plant response rating was 0.

What about the Plant response rating (cocklebur; 125 g ai/ha) of the same compound?
Its Plant response rating is 10.

What about the Plant response rating (cocklebur; 250 g ai/ha) of the same compound?
Its Plant response rating is 30.

What about the Plant response rating ([8]; 16 g ai/ha) of the same compound?
Its Plant response rating is 90.

And the Plant response rating ([8]; 31 g ai/ha)?
The Plant response rating was 90.

What about the Plant response rating ([8]; 62 g ai/ha) of the same compound?
Its Plant response rating is 90.

What about the Plant response rating ([8]; 125 g ai/ha) of the same compound?
The Plant response rating was 95.

And the Plant response rating ([8]; 250 g ai/ha)?
Its Plant response rating is 95.

What about the Plant response rating (waterhemp [9]; 16 g ai/ha) of the same compound?
The Plant response rating was 65.

What about the Plant response rating (waterhemp [9]; 31 g ai/ha) of the same compound?
The Plant response rating was 80.

What about the Plant response rating (waterhemp [9]; 62 g ai/ha) of the same compound?
Its Plant response rating is 90.

And the Plant response rating (waterhemp [9]; 125 g ai/ha)?
The Plant response rating was 95.

What about the Plant response rating (waterhemp [9]; 250 g ai/ha) of the same compound?
Its Plant response rating is 95.

What about the Plant response rating ([10]; 16 g ai/ha) of the same compound?
Its Plant response rating is 80.

And the Plant response rating ([10]; 31 g ai/ha)?
The Plant response rating was 85.

And the Plant response rating ([10]; 62 g ai/ha)?
Its Plant response rating is 85.

What about the Plant response rating ([10]; 125 g ai/ha) of the same compound?
Its Plant response rating is 90.

What about the Plant response rating ([10]; 250 g ai/ha) of the same compound?
The Plant response rating was 95.
